Experimental data reported in US20190135793A1, “HETEROCYCLIC INHIBITORS OF KDM5 FOR THE TREATMENT OF DISEASE” (Board of Regents, The University of Texas System, priority 2017, published 2019).
Like-named read-outs stand apart in the source and are kept apart here.

Assays:
[1] = molecular target: T1, KDM4C (Homo sapiens, UniProt Q9H3R0); experiment: KDM4C AlphaScreen assay; type: biochemical; settings: AlphaScreen; full length KDM4C 0.2 nM; biotinylated H3K9Me3 peptide 3 nM; 30 minutes at room temperature
T1 construct: Full length of KDM5B and KDM4C protein were purchased from Active Motif; purchased Active Motif 31858
T1 sequence (Q9H3R0 1-1056): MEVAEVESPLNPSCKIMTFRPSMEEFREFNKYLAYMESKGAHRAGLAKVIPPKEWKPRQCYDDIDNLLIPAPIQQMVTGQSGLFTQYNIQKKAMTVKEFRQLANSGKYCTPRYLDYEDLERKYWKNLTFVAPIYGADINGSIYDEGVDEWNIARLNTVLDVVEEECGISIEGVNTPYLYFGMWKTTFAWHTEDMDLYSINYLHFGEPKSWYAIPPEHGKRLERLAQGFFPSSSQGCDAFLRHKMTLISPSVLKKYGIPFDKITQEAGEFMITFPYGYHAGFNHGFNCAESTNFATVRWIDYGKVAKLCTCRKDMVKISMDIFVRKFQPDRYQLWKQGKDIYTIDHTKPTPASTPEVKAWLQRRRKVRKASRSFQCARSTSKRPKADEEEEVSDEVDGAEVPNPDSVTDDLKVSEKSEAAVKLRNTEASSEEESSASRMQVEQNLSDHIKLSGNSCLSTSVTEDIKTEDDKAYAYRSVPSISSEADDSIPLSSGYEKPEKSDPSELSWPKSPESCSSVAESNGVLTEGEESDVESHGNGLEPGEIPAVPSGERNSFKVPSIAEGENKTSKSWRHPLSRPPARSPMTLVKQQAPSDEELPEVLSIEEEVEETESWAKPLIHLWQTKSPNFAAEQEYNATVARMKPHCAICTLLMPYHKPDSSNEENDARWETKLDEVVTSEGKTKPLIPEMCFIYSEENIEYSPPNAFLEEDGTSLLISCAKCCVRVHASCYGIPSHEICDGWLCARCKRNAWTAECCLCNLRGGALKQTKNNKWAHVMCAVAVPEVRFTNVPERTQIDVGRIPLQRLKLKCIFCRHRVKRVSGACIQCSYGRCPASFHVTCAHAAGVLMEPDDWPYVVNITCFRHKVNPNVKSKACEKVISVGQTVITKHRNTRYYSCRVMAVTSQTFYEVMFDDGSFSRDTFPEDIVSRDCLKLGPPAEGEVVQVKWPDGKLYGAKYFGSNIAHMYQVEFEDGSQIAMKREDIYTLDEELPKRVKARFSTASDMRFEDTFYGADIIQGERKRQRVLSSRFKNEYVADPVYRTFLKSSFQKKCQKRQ
Outline: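 Full-length KDM4C (0.2 nM final) was preincubated 15 min at RT with compound in HEPES pH 7.4 with Tween-20, BSA and TCEP. The reaction ran 30 min at RT after adding biotinylated peptide (3 nM final) in buffer with Fe(II), α-ketoglutarate and ascorbate. EDTA-containing AlphaScreen beads stopped it; IC50 was curve-fitted.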

[2] = molecular target: T2, KDM5B (Homo sapiens, UniProt Q9UGL1); experiment: biochemical
T2 construct: Full length of KDM5B and KDM4C protein were purchased from Active Motif; purchased Active Motif 31832
Outline: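 KDM5B (0.5 nM final) was preincubated with compound for 15 min at room temperature, then reacted with biotinylated peptide (3 nM final) for 25 min at room temperature.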

[3] = AlphaScreen, full length KDM5B 0.5 nM, biotinylated H3K4Me3 peptide 3 nM, 25 minutes at room temperature, read-out: KDM5B (IC50)

T2 sequence (Q9UGL1 whole entry): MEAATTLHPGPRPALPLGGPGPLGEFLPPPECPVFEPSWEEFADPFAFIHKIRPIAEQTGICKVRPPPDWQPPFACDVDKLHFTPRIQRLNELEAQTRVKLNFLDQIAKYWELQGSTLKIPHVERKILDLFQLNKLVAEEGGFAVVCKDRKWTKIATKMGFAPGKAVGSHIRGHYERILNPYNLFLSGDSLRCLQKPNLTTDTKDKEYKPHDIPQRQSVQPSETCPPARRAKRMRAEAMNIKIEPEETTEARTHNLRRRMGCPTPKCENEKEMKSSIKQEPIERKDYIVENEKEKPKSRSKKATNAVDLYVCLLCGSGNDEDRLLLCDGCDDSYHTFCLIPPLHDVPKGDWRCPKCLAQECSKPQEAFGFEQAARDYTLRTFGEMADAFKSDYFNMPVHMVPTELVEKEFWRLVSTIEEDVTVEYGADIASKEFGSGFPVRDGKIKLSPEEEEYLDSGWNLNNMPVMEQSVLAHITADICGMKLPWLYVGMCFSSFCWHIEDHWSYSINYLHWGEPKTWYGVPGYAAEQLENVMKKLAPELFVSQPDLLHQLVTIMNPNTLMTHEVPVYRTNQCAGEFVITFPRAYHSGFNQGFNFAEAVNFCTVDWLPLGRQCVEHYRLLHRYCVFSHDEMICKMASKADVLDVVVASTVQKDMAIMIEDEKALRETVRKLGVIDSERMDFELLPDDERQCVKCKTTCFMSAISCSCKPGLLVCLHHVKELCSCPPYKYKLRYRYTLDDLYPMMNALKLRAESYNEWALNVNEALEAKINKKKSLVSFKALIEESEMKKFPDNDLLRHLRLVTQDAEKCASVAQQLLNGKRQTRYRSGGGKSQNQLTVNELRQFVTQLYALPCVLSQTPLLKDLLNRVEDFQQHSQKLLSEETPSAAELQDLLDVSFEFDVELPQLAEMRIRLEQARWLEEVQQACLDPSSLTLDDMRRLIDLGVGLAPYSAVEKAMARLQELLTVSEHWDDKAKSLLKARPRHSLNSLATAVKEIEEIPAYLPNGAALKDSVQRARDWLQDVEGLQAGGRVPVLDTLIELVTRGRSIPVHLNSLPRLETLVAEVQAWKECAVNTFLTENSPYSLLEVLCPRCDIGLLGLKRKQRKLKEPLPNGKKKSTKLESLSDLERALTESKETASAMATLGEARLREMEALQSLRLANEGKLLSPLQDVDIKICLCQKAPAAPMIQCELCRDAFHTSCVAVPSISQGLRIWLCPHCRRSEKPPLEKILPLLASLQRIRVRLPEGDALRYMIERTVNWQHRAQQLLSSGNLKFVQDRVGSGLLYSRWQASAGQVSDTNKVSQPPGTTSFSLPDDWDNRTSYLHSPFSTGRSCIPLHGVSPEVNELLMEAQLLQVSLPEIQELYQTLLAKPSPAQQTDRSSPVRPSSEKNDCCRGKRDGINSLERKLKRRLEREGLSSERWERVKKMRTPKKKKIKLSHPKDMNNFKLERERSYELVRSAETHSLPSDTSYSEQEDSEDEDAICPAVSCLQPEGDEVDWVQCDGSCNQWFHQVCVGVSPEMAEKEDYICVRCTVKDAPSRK

Compound | IC50 [1] [µM] | IC50 [2] [µM] | IC50 [2, 3] [µM]
CC(C)c1c(O)nc(-n2ccnc2)nc1-c1cnn(CC(N)=O)c1 [Example 7, 2-(4-(6-Hydroxy-2-(1H-imidazol-1-yl)-5-isopropylpyrimidin-4-yl)-1H-pyrazol-1-yl)-acetamide] | 1.15 | 0.011 | –
CC(C)c1c(O)nc(-n2ccnc2)nc1-c1cnn(CC(=O)NCCN(CC(F)(F)F)C2CC2)c1 [Example 111, N-[2-[Cyclopropyl(2,2,2-trifluoroethyl)amino]ethyl}-2-{4-[6-hydroxy-2-(1H-imidazol-1-yl)-5-(propan-2-yl)pyrimidin-4-yl]-1H-pyrazol-1-yl}acetamide] | 2.12 | 0.021 | –
COCCn1cc(-c2nc(-n3ccnc3)nc(O)c2C(C)C)cn1 [Example 51, 2-(1H-Imidazol-1-yl)-6-[1-(2-methoxyethyl)-1H-pyrazol-4-yl]-5-(propan-2-yl)pyrimidin-4-ol] | 1.96 | 0.014 | –
CC(C)c1c(O)nc(-n2ccnc2)nc1OCCN1CCNCC1 [Example 124, 2-(1H-Imidazol-1-yl)-6-[2-(piperazin-1-yl)ethoxy]-5-(propan-2-yl)pyrimidin-4-ol] | 1.2 | – | 0.01
CC(C)c1c(O)nc(-n2ccnc2)nc1-c1cccc(C#N)c1 [Example 79, 3-[6-Hydroxy-2-(1H-imidazol-1-yl)-5-(propan-2-yl)pyrimidin-4-yl]benzonitrile] | 5.19 | 0.04 | –
Cc1nc(-c2cncn2C)nc(O)c1C(C)C [Example 31, 6-methyl-2-(1-methyl-1H-imidazol-5-yl)-5-(propan-2-yl)pyrimidin-4-ol] | 5.68 | 0.074 | –
CC(C)Cc1ccc(-c2nc(-n3ccnc3)nc(O)c2C(C)C)cc1 [Example 86, 2-(1H-Imidazol-1-yl)-6-[4-(2-methylpropyl)phenyl]-5-(propan-2-yl)pyrimidin-4-ol] | 10 | – | 1.13
